Biological target: T1, BACE-1 enzyme (Homo sapiens, UniProt P56817)
T1 construct: purchased R & D Systems 931AS
Assay: BACE Fluorescence Resonance Energy Transfer (FRET) Assay
Type: biochemical
Details: pH 4-4.5, 30 min pre-incubation, about 1.5 hours reaction
Outline: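 Fluorescence (ex 540, em 585 nm) after ~1.5 h room-temperature cleavage of a quenched rhodamine peptide tracks BACE-1 activity. Enzyme and compound first sit 30 min in pH 4-4.5 acetate buffer with CHAPS, Triton X-100, EDTA, 7.5% DMSO. Values given as IC50 or % inhibition.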

T1 sequence (P56817 46-457 limits assumed): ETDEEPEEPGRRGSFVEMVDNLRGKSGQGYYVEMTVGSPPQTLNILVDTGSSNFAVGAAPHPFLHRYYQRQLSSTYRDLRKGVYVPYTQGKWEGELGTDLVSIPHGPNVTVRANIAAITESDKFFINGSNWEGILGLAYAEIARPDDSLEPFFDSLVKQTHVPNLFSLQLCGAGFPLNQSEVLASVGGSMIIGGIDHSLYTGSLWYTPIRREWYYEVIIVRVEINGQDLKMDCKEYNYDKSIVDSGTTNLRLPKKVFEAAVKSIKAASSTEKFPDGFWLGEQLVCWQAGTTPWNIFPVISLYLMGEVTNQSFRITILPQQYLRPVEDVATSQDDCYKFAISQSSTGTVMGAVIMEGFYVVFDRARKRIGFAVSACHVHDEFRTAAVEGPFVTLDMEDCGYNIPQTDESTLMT

Row | Structure (SMILES) | IC50 [µM]
1 | O=C(Nc1nc2cc(-c3cccc(C(F)(F)F)c3)ccc2[nH]1)c1cn2ccc(CNCCN3CCOCC3)cc2n1 [Example 210, 7-[(2-Morpholin-4-yl-ethylamino)-methyl]-imidazo[1,2-a]pyridine-2-carboxylic acid [5-(3-trifluoromethyl-phenyl)-1H-benzoimidazol-2-yl]-amide] | 0.18
2 | CCN(CCO)Cc1ccn2cc(C(=O)Nc3nc4cc(-c5cccc(C(F)(F)F)c5)ccc4[nH]3)nc2c1 [Example 211, 7-{[Ethyl-(2-hydroxy-ethyl)-amino]-methyl}-imidazo[1,2-a]pyridine-2-carboxylic acid [5-(3-trifluoromethyl-phenyl)-1H-benzoimidazol-2-yl]-amide] | 0.24
3 | CN(C)CCNCc1ccn2cc(C(=O)Nc3nc4cc(-c5cccc(C(F)(F)F)c5)ccc4[nH]3)nc2c1 [Example 212, 7-[(2-Dimethylamino-ethylamino)-methyl]-imidazo[1,2-a]pyridine-2-carboxylic acid [5-(3-trifluoromethyl-phenyl)-1H-benzoimidazol-2-yl]-amide] | 0.26
4 | Cn1cc(-c2cccc3nc(C(=O)Nc4nc5cc(-c6cccc(C(F)(F)F)c6)ccc5[nH]4)cn23)cn1 [Example 213, 5-(1-methyl-1H-pyrazol-4-yl)-N-{5-[3-(trifluoromethyl)phenyl]-1H-benzimidazol-2-yl}imidazo[1,2-a]pyridine-2-carboxamide] | 0.26
5 | O=C(Nc1nc2cc(-c3cccc(C(F)(F)F)c3)ccc2[nH]1)c1cn2cccc(-c3ccccc3)c2n1 [Example 216, 8-phenyl-N-{5-[3-(trifluoromethyl)phenyl]-1H-benzimidazol-2-yl}imidazo[1,2-a]pyridine-2-carboxamide] | 0.65
6 | O=C(Nc1nc2cc(-c3cccc(C(F)(F)F)c3)ccc2[nH]1)c1cn2c(-c3ccncc3)cccc2n1 [Example 217, 5-(pyridin-4-yl)-N-{5-[3-(trifluoromethyl)phenyl]-1H-benzimidazol-2-yl}imidazo[1,2-a]pyridine-2-carboxamide] | 0.15
7 | O=C(Nc1nc2cc(-c3cccc(C(F)(F)F)c3)ccc2[nH]1)c1cn2c(C3CCNCC3)cccc2n1 [Example 218, 5-(piperidin-4-yl)-N-{5-[3-(trifluoromethyl)phenyl]-1H-benzimidazol-2-yl}imidazo[1,2-a]pyridine-2-carboxamide] | 0.45
8 | CCCc1cccc2nc(C(=O)Nc3nc4cc(-c5cccc(C(F)(F)F)c5)ccc4[nH]3)cn12 [Example 220, 5-propyl-N-{5-[3-(trifluoromethyl)phenyl]-1H-benzimidazol-2-yl}imidazo[1,2-a]pyridine-2-carboxamide] | 0.38
9 | CCCc1cccc2nc(C(=O)Nc3nc4cc(-c5cccc(OC(F)(F)F)c5)ccc4[nH]3)cn12 [Example 221, 5-propyl-N-{5-[3-(trifluoromethoxy)phenyl]-1H-benzimidazol-2-yl}imidazo[1,2-a]pyridine-2-carboxamide] | 0.28
10 | CC(C)c1cccc2nc(C(=O)Nc3nc4cc(-c5cccc(C(F)(F)F)c5)ccc4[nH]3)cn12 [Example 222, 5-(propan-2-yl)-N-{5-[3-(trifluoromethyl)phenyl]-1H-benzimidazol-2-yl}imidazo[1,2-a]pyridine-2-carboxamide] | 1.23
11 | CC(C)c1cccc2nc(C(=O)Nc3nc4cc(-c5cccc(OC(F)(F)F)c5)ccc4[nH]3)cn12 [Example 223, 5-(propan-2-yl)-N-{5-[3-(trifluoromethoxy)phenyl]-1H-benzimidazol-2-yl}imidazo[1,2-a]pyridine-2-carboxamide] | 0.83
12 | CCc1cccc2nc(C(=O)Nc3nc4cc(-c5cccc(OC(F)(F)F)c5)ccc4[nH]3)cn12 [Example 224, 5-ethyl-N-{5-[3-(trifluoromethoxy)phenyl]-1H-benzimidazol-2-yl}imidazo[1,2-a]pyridine-2-carboxamide] | 0.55
13 | O=C(Nc1nc2cc(-c3cc(F)cc(Cl)c3)ccc2[nH]1)c1cn2c(C(=O)NC3CCNCC3)cccc2n1 [Example 225, Imidazo[1,2-a]pyridine-2,5-dicarboxylic acid 2-{[5-(3-chloro-5-fluoro-phenyl)-1H-benzoimidazol-2-yl]-amide} 5-piperidin-4-ylamide] | 0.48
14 | CNC(=O)c1cccn2cc(C(=O)Nc3nc4cc(-c5cccc(C(F)(F)F)c5)ccc4[nH]3)nc12 [Example 229, Imidazo[1,2-a]pyridine-2,8-dicarboxylic acid 8-methylamide 2-{[5-(3-trifluoromethyl-phenyl)-1H-benzoimidazol-2-yl]-amide}] | 0.16
15 | CN(C)C(=O)c1cccn2cc(C(=O)Nc3nc4cc(-c5cccc(C(F)(F)F)c5)ccc4[nH]3)nc12 [Example 230, Imidazo[1,2-a]pyridine-2,8-dicarboxylic acid 8-dimethylamide 2-{[5-(3-trifluoromethyl-phenyl)-1H-benzoimidazol-2-yl]-amide}] | 0.28
16 | COCCNC(=O)c1cccn2cc(C(=O)Nc3nc4cc(-c5cccc(C(F)(F)F)c5)ccc4[nH]3)nc12 [Example 231, Imidazo[1,2-a]pyridine-2,8-dicarboxylic acid 8-[(2-methoxy-ethyl)-amide] 2-{[5-(3-trifluoromethyl-phenyl)-1H-benzoimidazol-2-yl]-amide}] | 0.31
17 | O=C(Nc1nc2cc(-c3cccc(Cl)c3)ccc2[nH]1)c1cn2cc(N3CC[C@H](O)C3)ccc2n1 [Example 232, 6-((S)-3-Hydroxy-pyrrolidin-1-yl)-imidazo[1,2-a]pyridine-2-carboxylic acid [5-(3-chloro-phenyl)-1H-benzoimidazol-2-yl]-amide] | 0.14
18 | CO[C@H]1CCN(c2ccc3nc(C(=O)Nc4nc5cc(-c6cccc(Cl)c6)ccc5[nH]4)cn3c2)C1 [Example 233, 6-((S)-3-Methoxy-pyrrolidin-1-yl)-imidazo[1,2-a]pyridine-2-carboxylic acid [5-(3-chloro-phenyl)-1H-benzoimidazol-2-yl]-amide] | 0.41
19 | O=C(Nc1nc2cc(-c3cccc(Cl)c3)ccc2[nH]1)c1cn2cc(OCCOC3CCCCO3)ccc2n1 (stereo not shown) [Example 234, 6-[2-(Tetrahydro-pyran-2-yloxy)-ethoxy]-imidazo[1,2-a]pyridine-2-carboxylic acid [5-(3-chloro-phenyl)-1H-benzoimidazol-2-yl]-amide] | 0.35

Continued, values first:

Row | IC50 [µM] | Structure (SMILES)
20 | 0.69 | Cc1c(N2CC[C@H](O)C2)ccc2nc(C(=O)Nc3nc4cc(-c5cc(F)cc(Cl)c5)ccc4[nH]3)cn12 [Example 235, 6-((S)-3-Hydroxy-pyrrolidin-1-yl)-5-methyl-imidazo[1,2-a]pyridine-2-carboxylic acid [5-(3-chloro-5-fluoro-phenyl)-1H-benzoimidazol-2-yl]-amide]
21 | 0.25 | CO[C@@H]1CCN(c2ccc3nc(C(=O)Nc4nc5cc(-c6cc(F)cc(Cl)c6)ccc5[nH]4)cn3c2C)C1 [Example 236, 6-((R)-3-Methoxy-pyrrolidin-1-yl)-5-methyl-imidazo[1,2-a]pyridine-2-carboxylic acid [5-(3-chloro-5-fluoro-phenyl)-1H-benzoimidazol-2-yl]-amide]
22 | 0.23 | CO[C@H]1CCN(c2ccc3nc(C(=O)Nc4nc5cc(-c6cc(F)cc(Cl)c6)ccc5[nH]4)cn3c2C)C1 [Example 237, 6-((S)-3-Methoxy-pyrrolidin-1-yl)-5-methyl-imidazo[1,2-a]pyridine-2-carboxylic acid [5-(3-chloro-5-fluoro-phenyl)-1H-benzoimidazol-2-yl]-amide]
23 | 0.22 | Cc1c(C#CCO)ccc2nc(C(=O)Nc3nc4cc(-c5cccc(C(F)(F)F)c5)ccc4[nH]3)cn12 [Example 238, 6-(3-Hydroxy-prop-1-ynyl)-5-methyl-imidazo[1,2-a]pyridine-2-carboxylic acid [5-(3-trifluoromethyl-phenyl)-1H-benzoimidazol-2-yl]-amide]
24 | 0.7 | COCCn1c(NC(=O)c2cn3c(C)cccc3n2)nc2ccc(-c3cccc(C(F)(F)F)c3)cc21 [Example 239, 5-Methyl-imidazo[1,2-a]pyridine-2-carboxylic acid [1-(2-methoxy-ethyl)-6-(3-trifluoromethyl-phenyl)-1H-benzoimidazol-2-yl]-amide]
25 | 1.5 | Cc1cccn2cc(C(=O)Nc3nc4cc(-c5cccc(C(F)(F)F)c5)ccc4n3C)nc12 [Example 241, 8-Methyl-imidazo[1,2-a]pyridine-2-carboxylic acid [1-methyl-5-(3-trifluoromethyl-phenyl)-1H-benzoimidazol-2-yl]-amide]
26 | 0.44 | COCCn1c(NC(=O)c2cn3c(C)cccc3n2)nc2cc(-c3ccc(Cl)c(C(F)(F)F)c3)ccc21 [Example 242, 5-Methyl-imidazo[1,2-a]pyridine-2-carboxylic acid [5-(4-chloro-3-trifluoromethyl-phenyl)-1-(2-methoxy-ethyl)-1H-benzoimidazol-2-yl]-amide]
27 | 6.9 | Cc1cccc2nc(C(=O)Nc3nc4cc(-c5ccc(Cl)c(C(F)(F)F)c5)ccc4n3CCN3CCOCC3)cn12 [Example 243, 5-Methyl-imidazo[1,2-a]pyridine-2-carboxylic acid [5-(4-chloro-3-trifluoromethyl-phenyl)-1-(2-morpholin-4-yl-ethyl)-1H-benzoimidazol-2-yl]-amide]
28 | 3.64 | O=C(O)c1ccn2cc(C(=O)Nc3nc4cc(-c5cc(F)cc(Cl)c5)ccc4[nH]3)nc2c1 [Example 244, 2-[5-(3-Chloro-5-fluoro-phenyl)-1H-benzoimidazol-2-ylcarbamoyl]-imidazo[1,2-a]pyridine-7-carboxylic acid]

Reference: patent publication US20120101093A1, “SUBSTITUTED IMIDAZO[1,2-A]PYRIDINE DERIVATIVES, PHARMACEUTICAL COMPOSITIONS, AND METHODS OF USE AS BETA-SECRETASE INHIBITORS” (HIGH POINT PHARMACEUTICALS, LLC, priority 2009, published 2012)
